Holding throughout (type): cell-based
The subject of experiment [1] is E. coli BW25113. In words: MIC, microdilution in 96-well plates. The settings on record: Escherichia coli, BW25113, B: E. coli BW25113; read-out: MIC. As for the experimental part:
(§1) A microdilution method in 96-well plates was used and the MIC protocol established by the Clinical Laboratory Standards Institute was followed. From a growing subculture, a 1:10000 inoculum of each strain in Luria-Bertani media was prepared and aliquoted 100 μL in 4 columns of wells, except for the top row wells, which contained 200 μL of inoculum. A solution of gyramide C2 was aliquoted into 3 of the wells containing 200 μL and DMSO was added to the 4th well. The liquid in each of wells was mixed with a multi-channel pipet and 100 μL was transferred to the next well and mixed. The 2-fold dilution was continued down the 96-well plate until 100 μL was left, which was discarded. The plates were incubated at 37° C. with shaking for 16-18 hours. The MIC was determined as the lowest concentration that inhibited growth and had no turbidity by visual inspection.
(§2) Minimum inhibitory concentrations of various gyramide compounds against 20 strains of bacteria were determined using the procedure described above.

The test system of experiment [2] is Edwardsiella tarda. In words: MIC, microdilution in 96-well plates. The settings on record: D: Edwardsiella tarda. As for the experimental part:
as §1, §2

The subject of experiment [3] is E. coli JW5503 (deltolC). Briefly: MIC, 20-strain panel. The settings on record: Escherichia coli, C: E. coli JW5503 (deltolC). The protocol: as §1, §2
Experiment [4] relates to E. coli MG1655. Briefly: MIC, 20-strain panel. The settings on record: Escherichia coli, MG1655, A: E. coli MG1655; read-out: MIC. As for the experimental part:
as §1, §2

Experiment [5] has as its system Klebsiella pneumoniae subsp. pneumoniae. In words: MIC, 20-strain panel. The settings on record: E: Klebsiella pneumoniae subsp. pneumoniae. As for the experimental part:
as §1, §2

The subject of experiment [6] is Salmonella enterica subsp. enterica typhimurium. In words: MIC, 20-strain panel. The settings on record: F: Salmonella enterica subsp. enterica Typhimurium. As for the experimental part:
as §1, §2

For experiment [7], the system named is Shigella flexneri. In words: MIC, 20-strain panel. The settings on record: G: Shigella flexneri. As for the experimental part:
as §1, §2

Experiment [8] has as its system Staphylococcus aureus subsp. aureus. Briefly: MIC, 20-strain panel. The settings on record: H: Staphylococcus aureus subsp. aureus, read-out: MIC. The protocol:
as §1, §2

The subject of experiment [9] is Staphylococcus epidermidis. Briefly: MIC, 20-strain panel. The protocol: as §1, §2
Experiment [10] deals with Staphylococcus saprophyticus subsp. saprophyticus. Briefly: MIC, 20-strain panel. The protocol:
as §1, §2

In experiment [11] the test system is Streptococcus agalactiae. Briefly: MIC, 20-strain panel. The protocol: as §1, §2
The test system of experiment [12] is Streptococcus pyogenes. Briefly: MIC, 20-strain panel. The protocol: as §1, §2

Structures are written as SMILES. Converted amounts (≈) assume the structure as drawn.

For the molecule `CC(=O)c1cc(S(=O)(=O)N[C@@H]2CCN(Cc3ccc(OC(C)C)cc3)C2)ccc1C` [Compound 1], the MIC in experiment [1], in experiment [2], in experiment [3], in experiment [4], in experiment [5] and in experiment [6] was greater than 8 µg/mL each time. For the same molecule, the MIC in [7], in experiment [8], in experiment [9], in experiment [10], in experiment [11] and in experiment [12] was greater than 8 µg/mL throughout.

`N#Cc1cccc(S(=O)(=O)N[C@@H]2CCN(Cc3ccc(OC(F)F)cc3)C2)c1` [Compound 2]: the MIC is greater than 8 µg/mL in experiment [1]; greater than 8 µg/mL in experiment [2]; 8 µg/mL (≈ 19.6 µM) in experiment [3]; greater than 8 µg/mL in experiment [4]; greater than 8 µg/mL in experiment [5]; greater than 8 µg/mL in [6]. The minimal inhibitory concentration (MIC) in experiment [7], in experiment [8], in experiment [9], in experiment [10], in [11] and in [12] was greater than 8 µg/mL throughout.

As to `O=S(=O)(N[C@@H]1CCN(Cc2ccc(-n3ccnn3)cc2)C1)c1cccc(C(F)(F)F)c1` [Compound 3], the MIC in experiment [1] is greater than 8 µg/mL; in experiment [2] it was greater than 8 µg/mL; in [3], 4 µg/mL (≈ 8.86 µM); in [4], greater than 8 µg/mL; in [5], greater than 8 µg/mL; in experiment [6], greater than 8 µg/mL. Besides, the MIC in experiment [7], in experiment [8], in [9], in experiment [10], in experiment [11] and in experiment [12] was greater than 8 µg/mL in each case.

`CC(C)Oc1ccc(CN2CC[C@@H](NS(=O)(=O)c3cc(C(F)(F)F)ccc3F)C2)cc1` [Compound 4]: the MIC in experiment [1] is greater than 8 µg/mL; in experiment [2], greater than 8 µg/mL; in experiment [3], 0.5 µg/mL (≈ 1.09 µM); in experiment [4], greater than 8 µg/mL; in [5] it was greater than 8 µg/mL; in experiment [6] it was greater than 8 µg/mL. The MIC in experiment [7], in experiment [8], in experiment [9], in experiment [10], in experiment [11] and in experiment [12] was greater than 8 µg/mL each time.

In the case of `O=S(=O)(N[C@@H]1CCN(Cc2ccc(OC3CCC3)cc2)C1)c1cccc(C(F)(F)F)c1` [Compound 5], the MIC is roughly 8 µg/mL (≈ 17.6 µM) in [1]; greater than 8 µg/mL in [2]; 0.125 µg/mL (≈ 0.275 µM) in experiment [3]; greater than 8 µg/mL in experiment [4]; greater than 8 µg/mL in experiment [5]; 8 µg/mL (≈ 17.6 µM) in experiment [6]. Also, the MIC in [7], in [8], in [9], in [10], in experiment [11] and in [12] was greater than 8 µg/mL throughout.

Regarding `O=S(=O)(N[C@@H]1CCN(Cc2ccc(OC(F)(F)F)cc2)C1)c1cccc(C(F)(F)F)c1` [Compound 6], the MIC in experiment [1] is greater than 8 µg/mL; in [2], greater than 8 µg/mL; in experiment [3], 4 µg/mL (≈ 8.54 µM); in [4], greater than 8 µg/mL; in experiment [5] it was greater than 8 µg/mL; in experiment [6], greater than 8 µg/mL. Further, the MIC in experiment [7], in experiment [8], in [9], in experiment [10], in experiment [11] and in [12] was greater than 8 µg/mL in each case.

As for `N#Cc1cccc(S(=O)(=O)N[C@@H]2CCN(Cc3ccc(-n4ccnn4)cc3)C2)c1` [Compound 7], the MIC in experiment [1] is greater than 8 µg/mL; in [2], greater than 8 µg/mL; in experiment [3], 8 µg/mL (≈ 19.6 µM); in experiment [4], greater than 8 µg/mL; in experiment [5] it was greater than 8 µg/mL; in experiment [6], greater than 8 µg/mL. Besides, the MIC in experiment [7], in experiment [8], in [9], in experiment [10], in experiment [11] and in [12] was greater than 8 µg/mL throughout.
